From patent publication US4462991A, “Method of increasing oral absorption of polar bioactive agents” (INTERx Research Corp., priority 1982, dated 1984)

Test: Percent bioavailability after intraduodenal injection in anesthetized rats, (AUC)0-90 min relative to i.v.
Conditions: male, Sprague-Dawley, rat, in vivo, other: intraduodenal injection, 2.5 mg per animal, pH 5, Control (no adjuvant), intraduodenal injection 0.25 ml, drug 10 mg/ml, pH 5, ionic strength 0.3, AUC 0-90 min vs i.v., read-out: Percent Bioavailability (% BA)
Method: The following tests were run showing Percent Bioavailability (% BA)
The above tests were done according to the following protocol:
Animals: Male Sprague-Dawley rats (200-250 g)
Anesthesia: Ethyl carbamate by i.m. injection
Blood 0.6 ml from external jugular vein at
(AUC)o^90 calculated from summation
For the oral test an intraduodenal injection 1.0 cm distal to the pylorus was done . The volume of the injection was 0.25 ml at 0.3 ionic strength (adjusted with sodium chloride) and a pH of 5.
The drug was administered at 10 mg/ml unless otherwise noted and the adjuvant at 20 mg/ml unless otherwise noted.
The (AUC)i.v. was determined for each drug, based on the mean value from 3-6 animals.

bioavailability: 1%
SMILES: CC(C)[C@@H]1NC(=O)[C@H](CCCCN)NC(=O)[C@@H](Cc2c[nH]c3ccccc23)NC(=O)[C@H](Cc2ccc(O)cc2)NC(=O)[C@H](C)N(C)C(=O)[C@H](Cc2ccccc2)NC1=O [Cyclo-(N-Me-Ala-Tyr-D-Trp-Lys-Val-Phe)]
